Columns and labels:
[1] = Biodistribution blocking experiment with 1000-fold excess of non-radiolabeled peptide; format: in vivo, mice; conditions: female, BALB/c nude, mouse, in vivo, iv, total radioactivity, blocking
Procedure: (§1) Then, after 7–11 days, when visible tumor xenografts were formed, groups of 5 mice were injected intravenously via a lateral tail vein with ~0.5 MBq of radiolabeled peptide, corresponding to 20 pmol of peptide, in a total volume of ~150 µL in PBS/0.5% BSA. Using an additional mouse per group, a blocking study was performed by co-injecting a 1000-fold molar excess of the respective peptide analog (20 nmol) together with the radiolabeled peptide. For quantification, a 1:1, 1:10 and 1:50 standard was prepared using aliquots of the injection solution mixed with PBS/0.5% BSA. Mice were euthanized by cervical dislocation 4 h after injection. Subsequently, a blood sample was collected, and different tissues were dissected. All samples, as well as the rest of the body were weighed, and the activity measured in the γ-counter together with the standard. Results were expressed as percentage of injected activity per gram of tissue (%IA/g).

[2] = Biodistribution 4 h p.i. in A431-CCK2R/A431-mock xenografted BALB/c nude mice; format: in vivo; conditions: female, BALB/c nude, mouse, in vivo, iv, 20 pmol, total radioactivity
Procedure: as §1

[3] = system: A431-CCK2R/A431-mock xenografted BALB/c nude mice; assay: as above; format: in vivo; conditions: mouse, in vivo
Procedure: as §1

[4] = set-up: species or system human
Excerpt: Based on these preliminary studies, [^177Lu]Lu-2 was selected for further biodistribution studies evaluating the tumor uptake and tissue distribution for up to 7 days after injection. This study was approved by the Nijmegen Medical Center animal ethics committee (RUDEC) and the Dutch animal ethics committee (CCD) of the Radboud University (2020–0007-020). Female BALB/c nude mice were inoculated with A431-CCK2R cells at an age of 8–10 weeks (n = 20). When tumor xenografts were formed, mice were injected intravenously via a lateral tail vein with ~1 MBq of [^177Lu]Lu-2, corresponding to 20 pmol of peptide, in a total volume of 200 µL in PBS/0.5% BSA. For quantification, a 1% standard was used. […] All collected samples were weighed and measured in the γ-counter together with the standard. Results were expressed as percentage of injected activity per gram of tissue (%IA/g), and tumor-to-organ activity ratios were calculated for selected tissues. For dose-limiting organs, kidneys and stomach, dosimetry estimates were calculated using Olinda-EXM (version 2.2, Vanderbilt University) and standard weights for humans (male and female). For this purpose, the % IA/g determined in mice was extrapolated to humans using the following equation: % IA per organ in humans=[%IA/gin mice×mass of mice (kg)]×(mass of human organ (g)/total body mass of human (kg)) […]

[5] = system: A431-CCK2R xenografted BALB/c nude mice; assay: in vivo; conditions: mouse
Excerpt: Based on these preliminary studies, [^177Lu]Lu-2 was selected for further biodistribution studies evaluating the tumor uptake and tissue distribution for up to 7 days after injection. This study was approved by the Nijmegen Medical Center animal ethics committee (RUDEC) and the Dutch animal ethics committee (CCD) of the Radboud University (2020–0007-020). Female BALB/c nude mice were inoculated with A431-CCK2R cells at an age of 8–10 weeks (n = 20). When tumor xenografts were formed, mice were injected intravenously via a lateral tail vein with ~1 MBq of [^177Lu]Lu-2, corresponding to 20 pmol of peptide, in a total volume of 200 µL in PBS/0.5% BSA. For quantification, a 1% standard was used. At different time points of 1 h, 24 h, 3 days, and 7 days after injecton, animals were euthanized by CO2/O2-asphyxiation and a blood sample was immediately drawn, and tissues of interest (spleen, pancreas, stomach, intestine, kidneys, liver, heart, lung, muscle, femur, A431-CCK2R tumor, and A431-mock tumor) were dissected. All collected samples were weighed and measured in the γ-counter together with the standard. Results were expressed as percentage of injected activity per gram of tissue (%IA/g), and tumor-to-organ activity ratios were calculated for selected tissues. For dose-limiting organs, kidneys and stomach, dosimetry estimates were calculated using Olinda-EXM (version 2.2, Vanderbilt University) and standard weights for humans (male and female). For this purpose, the % IA/g determined in mice was extrapolated to humans using the following equation: % IA per organ in humans=[%IA/gin mice×mass of mice (kg)]×(mass of human organ (g)/total body mass of human (kg))

human serum proteins = assay: Protein binding in human serum by Sephadex G-50 size-exclusion chromatography; format: in vitro ADME
Procedure: The stability studies with the ^177Lu-labeled peptide analogs were carried out at a concentration of 0.5 nmol peptide/mL in fresh human serum (n = 2) for up to 24 h. A mixture of 0.05 nmol/mL of the radiolabeled peptides in PBS and octanol (1/1, v/v) was used to evaluate the octanol/PBS distribution coefficient (logD7.4; n = 8). To determine the protein binding in human serum by Sephadex G-50 size-exclusion chromatography (GE Healthcare Illustra, Little Chalfont, UK), a 25 µL serum sample was used for different time points after incubation. All steps were performed according to previously published protocols.

[6] = female, BALB/c nude, iv, 20 pmol, 72 h

tissue uptake at 4 h ([1]; uptake in A431-CCK2R xenograft): 0.39 %ID/g
tissue uptake at 4 h ([1]; uptake in A431-mock xenograft): 0.16 %ID/g
tissue uptake at 4 h ([1]; uptake in blood): 0.02 %ID/g
tissue uptake at 4 h ([1]; uptake in femur): 0.09 %ID/g
tissue uptake at 4 h ([1]; uptake in heart): 0.04 %ID/g
tissue uptake at 4 h ([1]; uptake in lung): 0.2 %ID/g
tissue uptake at 4 h ([1]; uptake in pancreas): 0.05 %ID/g
tissue uptake at 4 h ([1]; uptake in stomach): 0.09 %ID/g
tissue to tissue ratio at 4 h [2]: 17
tissue uptake at 4 h ([2]; uptake in A431-CCK2R xenografts): 32.1 ± 4.05 %ID/g
tissue uptake at 4 h ([2]; uptake in A431-mock xenografts): 0.22 ± 0.06 %ID/g
tissue uptake at 4 h ([2]; uptake in blood): 0.03 ± 0.01 %ID/g
tissue uptake at 4 h ([2]; uptake in femur): 0.22 ± 0.15 %ID/g
tissue uptake at 4 h ([2]; uptake in heart): 0.07 ± 0.02 %ID/g
tissue uptake at 4 h ([2]; uptake in intestine): 0.6 ± 0.12 %ID/g
tissue uptake at 4 h ([2]; uptake in kidneys): 1.96 ± 0.29 %ID/g
tissue uptake at 4 h ([2]; uptake in liver): 1.43 ± 0.18 %ID/g
tissue uptake at 4 h ([2]; uptake in lung): 0.22 ± 0.06 %ID/g
tissue uptake at 4 h ([2]; uptake in muscle): 0.06 ± 0.03 %ID/g
tissue uptake at 4 h ([2]; uptake in pancreas): 0.72 ± 0.14 %ID/g
tissue uptake at 4 h ([2]; uptake in spleen): 0.96 ± 0.3 %ID/g
tissue uptake at 4 h ([2]; uptake in stomach): 4.3 ± 0.95 %ID/g
improvement in tumor-to-kidney ratio versus [177Lu]Lu-DOTA-MGS5 [3]: more than 2 fold
cumulative absorbed radiation dose, kidneys [4]: < 5 Gy
cumulative absorbed radiation dose, stomach [4]: < 10 Gy
uptake in A431-CCK2R xenografts ([5]; female, BALB/c nude, iv, 20 pmol, 1 h): ~ 56 % IA/g
Tumor-to-kidney ratio [5, 6]: 17.3
Tumor-to-stomach ratio [5, 6]: 5.5
uptake in A431-CCK2R xenografts [5, 6]: ~ 13 % IA/g
uptake in kidneys [5, 6]: below 1 % IA/g
decrease of kidney uptake after 24 h versus 1 h p.i. [5]: ~ 54%
drop of uptake in A431-CCK2R xenografts after 24 h versus 1 h p.i. [5]: ~ 40%
improvement in tumor uptake in comparison with [177Lu]Lu-PP-F11N [5]: 4 fold
reduction of stomach uptake at 24 h p.i. versus 1 h p.i. [5]: ~ 33%
change in binding to human serum proteins compared to [177Lu]Lu-DOTA-MGS5 (human serum proteins): 2-fold decrease
decrease in protein binding compared to [177Lu]Lu-DOTA-MGS5 (human serum proteins; human, serum): ~ 50%
SMILES: CCCC[C@@H](C(=O)N[C@@H](CC(=O)O)C(=O)N[C@@H](Cc1cccc2ccccc12)C(N)=O)N(C)C(=O)[C@H](Cc1c[nH]c2ccccc12)NC(=O)CCNC(=O)CC(O)CNC(=O)CC(O)CNC(=O)CN1CCN(CC(=O)O)CCN(CC(=O)O)CCN(CC(=O)O)CC1 (stereo partly drawn) [[^177Lu]Lu-2, metal not drawn]
